± gives the expanded uncertainty stated by the source.
Tests used:
[1] = xn = mol fraction of the nth substance listed; conditions: 101.3 kPa, Liquid; for speed of sound: Sing-around technique in a fixed-path interferometer; for mass density: Vibrating tube method
[2] = refractive index (Na D-line) (dimensionless); xn = mol fraction of the nth substance listed; conditions: 101.3 kPa, Liquid, Standard Abbe refractometry

CCCCn1cc[n+](C)c1.COS(=O)(=O)[O-] [1-butyl-3-methylimidazolium methyl sulfate] + CC(C)O
Conditions	mass density, [1] [kg/m3]	refractive index, [2]	speed of sound, [1] [m/s]
298.15 K, x1 = 0.0482	835.17 ± 0.25	1.38886 ± 0.00033	1181.2 ± 0.87
298.15 K, x1 = 0.0965	880.673 ± 0.23	1.40004 ± 0.00034	1219.7 ± 0.97
298.15 K, x1 = 0.1938	955.343 ± 0.26	1.41819 ± 0.00037	1292.5 ± 1.2
298.15 K, x1 = 0.2928	1013.5 ± 0.36	1.43226 ± 0.0004	1358.2 ± 1.4
298.15 K, x1 = 0.3902	1059.05 ± 0.55	1.44304 ± 0.00043	1415 ± 1.6
298.15 K, x1 = 0.496	1099.29 ± 0.81	1.45252 ± 0.00047	1470.4 ± 1.9
298.15 K, x1 = 0.5903	1128.61 ± 1.1	1.45942 ± 0.0005	1514.7 ± 2.1
298.15 K, x1 = 0.6902	1154.5 ± 1.4	1.46547 ± 0.00054	1556.5 ± 2.4
298.15 K, x1 = 0.7978	1177.96 ± 1.9	1.47086 ± 0.00059	1596.4 ± 2.6
298.15 K, x1 = 0.9531	1205.6 ± 2.6	1.47709 ± 0.00065	1642.9 ± 3
298.15 K, x1 = 1	1212.06 ± 2.8	1.47824 ± 0.00068	1654.6 ± 3.1
303.15 K, x1 = 0.0482	831.096 ± 0.26	1.38696 ± 0.00033	1165.3 ± 0.87
303.15 K, x1 = 0.0965	876.702 ± 0.23	1.39831 ± 0.00034	1204.4 ± 0.97
303.15 K, x1 = 0.1938	951.52 ± 0.26	1.41666 ± 0.00037	1278.2 ± 1.2
303.15 K, x1 = 0.2928	1009.8 ± 0.36	1.43067 ± 0.0004	1344.3 ± 1.4
303.15 K, x1 = 0.3902	1055.42 ± 0.54	1.44158 ± 0.00043	1401.7 ± 1.6
303.15 K, x1 = 0.496	1095.74 ± 0.8	1.45108 ± 0.00047	1457.6 ± 1.9
303.15 K, x1 = 0.5903	1125.13 ± 1.1	1.458 ± 0.0005	1502.1 ± 2.1
303.15 K, x1 = 0.6902	1151.05 ± 1.4	1.46409 ± 0.00054	1544.2 ± 2.4
303.15 K, x1 = 0.7978	1174.52 ± 1.8	1.46948 ± 0.00059	1584.2 ± 2.6
303.15 K, x1 = 0.9531	1202.22 ± 2.6	1.47576 ± 0.00065	1630.7 ± 3
303.15 K, x1 = 1	1208.7 ± 2.8	1.47704 ± 0.00068	1642.2 ± 3.1
308.15 K, x1 = 0.0482	826.964 ± 0.26	1.38495 ± 0.00033	1148.9 ± 0.87
308.15 K, x1 = 0.0965	872.696 ± 0.23	1.39643 ± 0.00034	1188.9 ± 0.97
308.15 K, x1 = 0.1938	947.68 ± 0.26	1.41492 ± 0.00037	1263.7 ± 1.2
308.15 K, x1 = 0.2928	1006.09 ± 0.35	1.42902 ± 0.0004	1330.4 ± 1.4
308.15 K, x1 = 0.3902	1051.78 ± 0.54	1.44001 ± 0.00043	1388.3 ± 1.6
308.15 K, x1 = 0.496	1092.2 ± 0.8	1.44958 ± 0.00047	1444.6 ± 1.9
308.15 K, x1 = 0.5903	1121.71 ± 1.1	1.45655 ± 0.0005	1489.5 ± 2.1
308.15 K, x1 = 0.6902	1147.61 ± 1.4	1.46268 ± 0.00054	1531.7 ± 2.4
308.15 K, x1 = 0.7978	1171.15 ± 1.8	1.4681 ± 0.00059	1571.9 ± 2.6
308.15 K, x1 = 0.9531	1198.85 ± 2.6	1.47442 ± 0.00065	1618.5 ± 3
308.15 K, x1 = 1	1205.35 ± 2.8	1.47577 ± 0.00068	1630 ± 3.1
313.15 K, x1 = 0.0482	822.774 ± 0.26	1.38288 ± 0.00033	1132.5 ± 0.86
313.15 K, x1 = 0.0965	868.646 ± 0.23	1.3945 ± 0.00034	1173.3 ± 0.96
313.15 K, x1 = 0.1938	943.827 ± 0.27	1.41317 ± 0.00037	1249.1 ± 1.2
313.15 K, x1 = 0.2928	1002.39 ± 0.35	1.4274 ± 0.0004	1316.5 ± 1.4
313.15 K, x1 = 0.3902	1048.13 ± 0.53	1.43845 ± 0.00043	1375 ± 1.6
313.15 K, x1 = 0.496	1088.68 ± 0.79	1.44808 ± 0.00047	1431.8 ± 1.9
313.15 K, x1 = 0.5903	1118.31 ± 1.1	1.4551 ± 0.0005	1476.9 ± 2.1
313.15 K, x1 = 0.6902	1144.23 ± 1.4	1.46125 ± 0.00054	1519.4 ± 2.4
313.15 K, x1 = 0.7978	1167.77 ± 1.8	1.46674 ± 0.00059	1559.7 ± 2.6
313.15 K, x1 = 0.9531	1195.49 ± 2.5	1.47306 ± 0.00065	1606.4 ± 3
313.15 K, x1 = 1	1202.01 ± 2.8	1.47443 ± 0.00068	1617.9 ± 3.1

CCCCn1cc[n+](C)c1.COS(=O)(=O)[O-] [1-butyl-3-methylimidazolium methyl sulfate] + CCCCO
Conditions	mass density, [1] [kg/m3]	refractive index, [2]	speed of sound, [1] [m/s]
298.15 K, x1 = 0.0425	843.506 ± 0.31	1.40525 ± 0.00038	1261.4 ± 1.3
298.15 K, x1 = 0.0922	882.293 ± 0.33	1.41307 ± 0.00039	1285.1 ± 1.4
298.15 K, x1 = 0.1929	948.953 ± 0.41	1.42652 ± 0.00042	1333.2 ± 1.5
298.15 K, x1 = 0.2926	1002.76 ± 0.55	1.43736 ± 0.00044	1379.5 ± 1.7
298.15 K, x1 = 0.3915	1047.2 ± 0.75	1.44629 ± 0.00047	1424.2 ± 1.9
298.15 K, x1 = 0.4981	1087.51 ± 1	1.45433 ± 0.00051	1471 ± 2.1
298.15 K, x1 = 0.5997	1120.12 ± 1.3	1.4608 ± 0.00054	1513.5 ± 2.3
298.15 K, x1 = 0.7996	1172.03 ± 2	1.47095 ± 0.0006	1589.4 ± 2.7
298.15 K, x1 = 1	1212.06 ± 2.8	1.47824 ± 0.00068	1654.6 ± 3.1
303.15 K, x1 = 0.0425	839.735 ± 0.31	1.40335 ± 0.00038	1245.6 ± 1.3
303.15 K, x1 = 0.0922	878.554 ± 0.33	1.41133 ± 0.00039	1270 ± 1.4
303.15 K, x1 = 0.1929	945.272 ± 0.41	1.42489 ± 0.00042	1318.8 ± 1.5
303.15 K, x1 = 0.2926	999.143 ± 0.54	1.43578 ± 0.00044	1365.8 ± 1.7
303.15 K, x1 = 0.3915	1043.64 ± 0.75	1.44477 ± 0.00047	1411 ± 1.9
303.15 K, x1 = 0.4981	1084.01 ± 1	1.45286 ± 0.00051	1458.1 ± 2.1
303.15 K, x1 = 0.5997	1116.66 ± 1.3	1.45937 ± 0.00054	1500.9 ± 2.3
303.15 K, x1 = 0.7996	1168.59 ± 2	1.46959 ± 0.0006	1577.1 ± 2.7
303.15 K, x1 = 1	1208.7 ± 2.8	1.47704 ± 0.00068	1642.2 ± 3.1
308.15 K, x1 = 0.0425	835.931 ± 0.31	1.40141 ± 0.00038	1229.6 ± 1.3
308.15 K, x1 = 0.0922	874.794 ± 0.32	1.40946 ± 0.00039	1254.6 ± 1.4
308.15 K, x1 = 0.1929	941.58 ± 0.41	1.42315 ± 0.00042	1304.3 ± 1.5
308.15 K, x1 = 0.2926	995.525 ± 0.54	1.43415 ± 0.00044	1351.8 ± 1.7
308.15 K, x1 = 0.3915	1040.09 ± 0.74	1.44321 ± 0.00047	1397.5 ± 1.9
308.15 K, x1 = 0.4981	1080.52 ± 1	1.45136 ± 0.00051	1445.1 ± 2.1
308.15 K, x1 = 0.5997	1113.21 ± 1.3	1.45792 ± 0.00054	1488.2 ± 2.3
308.15 K, x1 = 0.7996	1165.14 ± 2	1.46821 ± 0.0006	1564.7 ± 2.7
308.15 K, x1 = 1	1205.35 ± 2.8	1.47577 ± 0.00068	1630 ± 3.1
313.15 K, x1 = 0.0425	832.1 ± 0.31	1.39946 ± 0.00038	1213.7 ± 1.2
313.15 K, x1 = 0.0922	871.02 ± 0.33	1.40762 ± 0.00039	1239.3 ± 1.4
313.15 K, x1 = 0.1929	937.88 ± 0.41	1.42144 ± 0.00042	1289.8 ± 1.5
313.15 K, x1 = 0.2926	991.896 ± 0.54	1.43253 ± 0.00044	1338 ± 1.7
313.15 K, x1 = 0.3915	1036.54 ± 0.74	1.44166 ± 0.00047	1384.2 ± 1.9
313.15 K, x1 = 0.4981	1077.03 ± 1	1.44987 ± 0.00051	1432.3 ± 2.1
313.15 K, x1 = 0.5997	1109.78 ± 1.3	1.45646 ± 0.00054	1475.7 ± 2.3
313.15 K, x1 = 0.7996	1161.71 ± 2	1.46682 ± 0.0006	1552.6 ± 2.7
313.15 K, x1 = 1	1202.01 ± 2.8	1.47443 ± 0.00068	1617.9 ± 3.1
